Assay results: patent US10501479B2, “Benzenesulfonyl-asymmetric ureas and medical uses thereof” (HELSINN HEALTHCARE SA, priority 2016, dated 2019)
pEC50, pIC50: −log10 of the molar value. Where “and” joins values, the source holds several entries; their conditions need not be identical. Equal values may be shown once. Read-outs that look alike come from different tables or passages of the source.

How the values were obtained:
[1] = molecular target: T1, recombinant human ghrelin receptor (HEK293/GRLN) (Homo sapiens, UniProt Q92847); experiment: Ghrelin inverse agonist potency (EC50) with IP-1 (IP-One HTRF) assay; type: cell-based; details: IP-1 assay
T1 construct: expressed in transfected cells
T1 sequence (Q92847 whole entry): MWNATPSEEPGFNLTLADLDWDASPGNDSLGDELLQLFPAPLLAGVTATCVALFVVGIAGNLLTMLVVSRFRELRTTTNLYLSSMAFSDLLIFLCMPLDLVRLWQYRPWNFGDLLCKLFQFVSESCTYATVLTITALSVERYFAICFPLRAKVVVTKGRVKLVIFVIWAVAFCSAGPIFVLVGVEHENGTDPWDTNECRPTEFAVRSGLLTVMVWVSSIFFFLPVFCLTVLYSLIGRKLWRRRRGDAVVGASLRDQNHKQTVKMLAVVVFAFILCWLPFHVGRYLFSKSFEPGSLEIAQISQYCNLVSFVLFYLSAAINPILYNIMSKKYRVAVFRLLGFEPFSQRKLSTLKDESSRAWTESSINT
Outline: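 IP-1 accumulation was measured by HTRF (IP1-d2/Tb-cryptate, 620/665 nm read after 1 hour at room temperature) following 1 hour of compound treatment at 37° C. Cells were HEK293 stably expressing human ghrelin receptor, plated a day earlier on Matrigel. Inverse agonist potency was reported as EC50.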

[2] = molecular target: T2, GHSR-1a (HEK293/GHSR1a cell line) (Homo sapiens, UniProt Q92847); experiment: Ghrelin antagonist potency (IC50) with calcium FLIPR assay, ghrelin 10 nM; type: cell-based
T2 construct: expressed in transfected cells; host or cells: HEK293/GHSR1a cell line
T2 sequence (Q92847 whole entry): as above
Outline: (§1)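 Fluorescence read-out of intracellular calcium over 2 min. Agonist EC50 came from compound added alone at t=20 sec. Antagonist IC50 came from the reduction of the response to 10 nM ghrelin co-added with compound at t=20 sec. Both were fitted from dose-response data.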

[3] = Metabolic stability in human liver microsomes; type: in vitro ADME
Outline: (§2)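 Microsomes + compound, 100 mM K phosphate pH 7.4, 37 °C; 5 min preincubation, NADPH regenerating system added to start. Aliquots at 0/10/30/90 min into cold quench, spun 5000×g, supernatant diluted, LC-MS/MS.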

[4] = Metabolic stability in rat liver microsomes; type: in vitro ADME
Description: (§3) Metabolic Stability Study
(§4) The metabolic stability of compounds in human, dog, rat and mouse liver microsomes was performed according the experimental conditions reported below:
(§5) • a) Prepare the following 5 stock solutions: • 1. Test compound stock solutions: dilute 10 mM solution of dextromethorphan (Dtr) in DMSO, 10 mM solution of diphenhydramine (DPA) in DMSO, 10 mM solution of omeprazole (Ome) in DMSO, 10 mM solution of verapamil (Ver) in DMSO, and 10 mM of an inverse agonist compound in DMSO to 0.25 mM solution each with acetonitrile/water (70/30). • 2. Buffer: 100 mM potassium phosphate Buffer (PBS) at pH 7.4 • 3. Liver microsomes (20 mg/ml): Thaw in 37° C. water bath quickly • 4. 2000 μL: of NADPH regenerating system (1.3 mM). Place this system on ice before use:
(§6) • 5. […] The test compound concentration in the wells, measured by LC-MS/MS, represents the concentration at time=0. • f) To determine the test compound concentration when t≠0, pre-incubate the NADPH regenerating system and the incubation plate containing the remaining 320 μL of incubation mixture (microsomes protein and test compound) for 5 minutes at 37° C. • g) Start the incubation reaction by adding 80 μL NADPH regenerating system to each well containing the remaining 320 μL incubation mixture. • h) After 10 min., 30 min., and 90 min. of incubation at 37° C., transfer 100 μL of the incubation mixture (microsomes protein, test compound, and NADPH) into the wells of a stop plate pre-filled with 300 μL of the cold quench solution. Shake well. • i) Centrifuge the stop plate at 5000×g for 10 minutes. Collect and dilute the supernatant 3 times with distilled water. Sample and analyze the test compound concentration for all the wells by LC-MS/MS. Animal PK Studies via i.v. (intravenous), p.o. (orally) and s.c. (subcutaneous) administrations

[5] = Metabolic stability in mouse liver microsomes; type: in vitro ADME
Outline: as §2

[6] = Animal PK study in mouse via i.v., p.o. and s.c. administration; type: in vivo; details: for Vd / clearance / half-life: plasma; for clearance: read-out: PK CL i.v.
Outline: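 Plasma drug levels were measured by LC-MS/MS after acetonitrile precipitation, with blood drawn up to 24 h post-dose (from 0.083 h i.v./s.c., 0.25 h oral) in mice or rats. Animals received one dose by gavage in DMSO/methylcellulose, or by tail-vein or subcutaneous injection in DMSO/HP-β-cyclodextrin.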

[7] = Plasma protein binding (PPB), human; type: in vitro ADME; details: read-out: PPB (H)
[8] = Plasma protein binding (PPB), mouse; type: in vitro ADME
[9] = Metabolic stability in dog liver microsomes; type: in vitro ADME
Description: as §3, §4, §5, §6

[10] = Plasma protein binding (PPB), rat; type: in vitro ADME; details: read-out: PPB (R) (converted)
[11] = Plasma protein binding (PPB), human; type: in vitro ADME; details: read-out: PPB (H) (converted)
[12] = Plasma protein binding (PPB), mouse; type: in vitro ADME; remark: listed apart in the source
[13] = molecular target: T2, GHSR-1a (HEK293/GHSR1a cell line); experiment: Ghrelin agonist potency (EC50) with calcium FLIPR assay; type: cell-based; details: HEK293/GHSR1a, read-out: Activity EC50/EMax: EC50 (ghrelin agonist potency)
Outline: as §1

[14] = Animal PK study in rat via i.v., p.o. and s.c. administration; type: in vivo; details: rat, i.p.
[15] = inverse agonist potency, read-out: EC50 (Activity)
[16] = ghrelin antagonist potency, read-out: IC50 (Activity)
[17] = HEK293/GRLN, read-out: Activity EC50 (ghrelin inverse agonist potency)
[18] = HEK293/GHSR1a, ghrelin 10 nM, read-out: Activity IC50 (ghrelin antagonist potency)
[19] = po, 10 mg/kg, p.o., read-out: PK t1/2 p.o.
[20] = iv, 5 mg/kg, i.v., read-out: PK t1/2 i.v.

| Compound | pEC50 [1, 15] | pIC50 [2, 16] | Metabolic Stability Study H = human [3] | Metabolic Stability Study R = rat [4] | Metabolic Stability Study M = mouse [5] | PK F [6] | fraction unbound [7] | fraction unbound [8] | Metabolic Stability Study D = dog [9] | pEC50 [1, 17] | pIC50 [2, 18] | PK CL p.o. ([6]; p.o.) | PK Vd p.o. ([6]; p.o.) | Vd ([6]; iv, 5 mg/kg) | clearance ([6]; iv, 5 mg/kg, i.v.) | half-life [6, 19] | fraction unbound [11] | fraction unbound [12] | pEC50 [13] | further results |
| --- | --- | --- | --- | --- | --- | --- | --- | --- | --- | --- | --- | --- | --- | --- | --- | --- | --- | --- | --- | --- |
| C[C@H](NC(=O)Nc1ccc(S(=O)(=O)Nc2ccc(CC(C)(C)N)cc2)cc1)c1ccc(-c2cnccn2)c(Cl)c1Cl [H0906, (S)-N-(4-(2-amino-2-methylpropyl)phenyl)-4-(3-(1-(2,3-dichloro-4-(pyrazin-2-yl)phenyl)ethyl)ureido) benzenesulfonamide] | 8.17 | 7.72 | 19.9 µL/min/mg | 13.6 µL/min/mg | 24.4 µL/min/mg | 0.1% | 0.0016 | 0.0004 |  |  |  |  |  |  |  |  |  |  |  | PK CLiv ([6]; i.v.): 3 mL/min/kg; PK Vdiv ([6]; i.v.): 0.27 L/kg; PK t1/2iv ([6]; i.v.): 1.03 h; PK CLpo ([6]; p.o.): 3991.2 mL/min/kg; PK Vdpo ([6]; p.o.): 479.77 L/kg; PK t1/2po ([6]; p.o.): 1.39 h |
| CNC(C)(C)Cc1ccc(NS(=O)(=O)c2ccc(NC(=O)N[C@@H](C)c3ccc(-c4cnccn4)c(Cl)c3Cl)cc2)cc1 [H0941, (S)-4-(3-(1-(2,3-dichloro-4-(pyrazin-2-yl)phenyl)ethyl)ureido)-N-(4-(2-methyl-2-(methylamino)propyl)phenyl) benzenesulfonamide] | 8.55 | 8.11 | 47.7 µL/min/mg | 36.2 µL/min/mg | 66.2 µL/min/mg |  | 0.0002 | 0.0005 | 48.2 µL/min/mg |  |  |  |  |  |  |  |  |  |  |  |
| COc1ccc([C@H](C)NC(=O)Nc2ccc(S(=O)(=O)Nc3ccc4c(c3)CCN(C)C4)cc2)c(Cl)c1Cl [H1017] | 8.01 | 7.14 | 11.5 µL/min/mg |  | 30.5 µL/min/mg |  | 0.001 | 0.0003 |  |  |  |  |  |  |  |  |  |  |  |  |
| Cl.O=C(NCc1cccc(Cl)c1Cl)Nc1ccc(S(=O)(=O)Cc2ccc3c(c2)CNC3)cc1 [H1057, 1-(2,3-dichlorobenzyl)-3-(4-((isoindolin-5-ylmethyl)sulfonyl)phenyl)urea] | 8.16 | 7.71 | 12.6 µL/min/mg |  | 10.8 µL/min/mg | 1.6% | 0.005 | 0.005 |  |  |  |  |  |  |  |  |  |  |  | PK CLiv ([6]; i.v.): 26.2 mL/min/kg; PK Vdiv ([6]; i.v.): 2.18 L/kg; PK t1/2iv ([6]; i.v.): 0.96 h; PK CLpo ([6]; p.o.): 1371 mL/min/kg; PK Vdpo ([6]; p.o.): 368.9 L/kg; PK t1/2po ([6]; p.o.): 3.11 h |
| C[C@H](NC(=O)Nc1ccc(S(=O)(=O)Cc2ccc3c(c2)CNC3)cc1)c1ccccc1 [H1215, (S)-1-(4-((isoindolin-5-ylmethyl)sulfonyl)phenyl)-3-(1-phenylethyl)urea] | 8.34 | 7.91 | 21 µL/min/mg | 18.5 µL/min/mg | 13.7 µL/min/mg |  | 0.097 | 0.093 | 16.6 µL/min/mg |  |  |  |  |  |  |  |  |  |  | fraction unbound [10]: 0.065 |
| CC(c1ccccc1)N(C)C(=O)Nc1ccc(S(=O)(=O)Cc2ccc3c(c2)CN(C)C3)cc1 (centres unmarked) [H1381, 1-methyl-3-(4-(((2-methylisoindolin-5-yl)methyl)sulfonyl)phenyl)-1-(1-phenylethyl)urea] |  |  | 60 µL/min/mg |  | 68.1 µL/min/mg | 20.64% |  |  | 88.7 µL/min/mg | 7.66 and 7.48 | 6.32 and 6.59 | 295 mL/min/kg | 42.87 L/kg | 3.1 L/kg | 63.8 mL/min/kg | 1.68 h | 0.0906 | 0.0854 |  |  |
| COc1cc(S(=O)(=O)Cc2ccc3c(c2)CN(C)C3)ccc1NC(=O)NC(C)c1ccccc1 (centres unmarked) [H1388, 1-(2-methoxy-4-(((2-methylisoindolin-5-yl)methyl)sulfonyl)phenyl)-3-(1-phenylethyl)urea] |  |  | 58.1 µL/min/mg |  | 42.4 µL/min/mg | 11.3% |  |  |  | 8.34 | 7.99 | 675 mL/min/kg | 86.8 L/kg | 6.3 L/kg | 77.7 mL/min/kg | 1.49 h | 0.031 | 0.079 | < 4.52 | half-life [6, 20]: 0.93 h |
| COc1ccc([C@@H](C)NC(=O)Nc2ccc(S(=O)(=O)Cc3ccc4c(c3)CCN(C)C4)cc2)c(Cl)c1Cl [H1417, (R)-1-(1-(2,3-dichloro-4-methoxyphenyl)ethyl)-3-(4-(((2-methyl-1,2,3,4-tetrahydroisoquinolin-6-yl)methyl)sulfonyl)phenyl)urea] |  |  | 48.9 µL/min/mg |  | 53.4 µL/min/mg | 11.80% |  |  |  | 8.01 | 7.35 | 226.8 mL/min/kg | 24.97 L/kg | 4.74 L/kg | 26.2 mL/min/kg | 1.27 h | 0.0015 | 0.0012 | < 4.52 | half-life [6, 20]: 2.09 h |
| COc1cc(S(=O)(=O)Cc2ccc3c(c2)CNC3)ccc1NC(=O)NC(C)c1cccc(Cl)c1Cl.Cl (centres unmarked) [H1421, 1-(1-(2,3-dichlorophenyl)ethyl)-3-(4-((isoindolin-5-ylmethyl)sulfonyl)-2-methoxyphenyl)urea] |  |  | 13.2 µL/min/mg |  | 38.8 µL/min/mg |  |  |  |  | 9.40 | 8.74 |  |  |  |  |  | 0.0037 | 0.0034 | < 4.30 | half-life ([14]; plasma, ip, read-out: PK t1/2 i.p. (R)): 19 h; PK CL i.p. (R) [14]: 32.7 mL/min/kg; PK Vd i.p. (R) [14]: 54.56 L/kg |
